Laboratory results published in PubChem BioAssay (NCI).
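Method: 48-hour compound exposure of cells in 96-well plates, five concentrations, linear interpolation of endpoints. GI50: concentration for 50% inhibition of growth. TGI marks complete inhibition of growth.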

Tests used:
Assay in all cases: growth of human tumour cells (NCI), 48 h
[1] = system: NCI/ADR-RES ovarian
[2] = system: ACHN renal
[3] = system: HL-60(TB) leukemia
[4] = system: OVCAR-5 ovarian
[5] = system: T-47D breast
[6] = system: SF-539 CNS
[7] = system: RXF 393 renal
[8] = system: TK-10 renal
[9] = system: SF-268 CNS
[10] = system: IGROV1 ovarian
[11] = system: MDA-MB-231 breast
[12] = system: UACC-257 melanoma
[13] = system: HOP-62 NSCLC
[14] = system: NCI-H226 lung
[15] = system: HCT-116 colon
[16] = system: MOLT-4 leukemia
[17] = system: CAKI-1 renal
[18] = system: SF-295 CNS
[19] = system: EKVX NSCLC
[20] = system: DU-145 prostate
[21] = system: MCF7 breast
[22] = system: MDA-MB-468 breast
[23] = system: KM12 colon
[24] = system: UACC-62 melanoma
[25] = system: SNB-19 CNS
[26] = system: SK-MEL-28 melanoma
[27] = system: MDA-MB-435
[28] = system: U251 CNS
[29] = system: OVCAR-4 ovarian
[30] = system: HS 578T breast
[31] = system: 786-0 renal
[32] = system: SK-MEL-5 melanoma
[33] = system: UO-31 renal
[34] = system: A498 renal
[35] = system: SR leukemia
[36] = system: NCI-H23 lung
[37] = system: COLO 205 colon
[38] = system: HT29 colon
[39] = system: M14 melanoma
[40] = system: PC-3 prostate
[41] = system: RPMI-8226 leukemia
[42] = system: A549 NSCLC
[43] = system: OVCAR-3 ovarian
[44] = system: BT-549 breast
[45] = system: HOP-92 NSCLC
[46] = system: CCRF-CEM leukemia
[47] = system: NCI-H522 lung
[48] = system: NCI-H460 lung
[49] = system: K-562 leukemia
[50] = system: SN12C renal
[51] = system: HCC-2998 colon
[52] = system: SW-620 colon
[53] = system: MALME-3M melanoma
[54] = system: SK-MEL-2 melanoma
[55] = system: HCT-15 colon
[56] = system: OVCAR-8 ovarian
[57] = system: SK-OV-3 ovarian
[58] = system: LOX IMVI melanoma
[59] = system: SNB-75 CNS

SMILES: O=Cc1cncc(-c2ccc3ncnc(N4CCc5cc(F)c(Cl)cc54)c3c2)c1
- GI50 [1]: 5.31 µM
- TGI [1]: 36.6 µM
- GI50 [2]: 1.02 µM
- TGI [2]: 13.5 µM
- GI50 [3]: 2.22 µM
- TGI [3]: 22.1 µM
- GI50 [4]: 4.01 µM
- TGI [4]: 22.1 µM
- GI50 [5]: 1.31 µM
- TGI [5]: 11.1 µM
- GI50 [6]: 3.75 µM
- TGI [6]: 18.7 µM
- GI50 [7]: 1.23 µM
- TGI [7]: 4.32 µM
- GI50 [8]: 1.32 µM
- TGI [8]: 10.5 µM
- GI50 [9]: 5.14 µM
- TGI [9]: > 100 µM
- GI50 [10]: 1.05 µM
- TGI [10]: 4.78 µM
- GI50 [11]: 4.85 µM
- TGI [11]: 25.3 µM
- GI50 [12]: 8.62 µM
- TGI [12]: 25.9 µM
- GI50 [13]: 2.47 µM
- TGI [13]: 26 µM
- GI50 [14]: 5.1 µM
- TGI [14]: 23.9 µM
- GI50 [15]: 5.41 µM
- TGI [15]: 20.4 µM
- GI50 [16]: 2.45 µM
- TGI [16]: 7.06 µM
- GI50 [17]: 1.31 µM
- TGI [17]: 16 µM
- GI50 [18]: 3.98 µM
- TGI [18]: 21.5 µM
- GI50 [19]: 1.25 µM
- TGI [19]: 8.09 µM
- GI50 [20]: 3.93 µM
- TGI [20]: > 100 µM
- GI50 [21]: 1.64 µM
- TGI [21]: 7.38 µM
- GI50 [22]: 1.22 µM
- TGI [22]: 3.21 µM
- GI50 [23]: 15.4 µM
- TGI [23]: 49.3 µM
- GI50 [24]: 2.02 µM
- TGI [24]: 12.4 µM
- GI50 [25]: 4.73 µM
- TGI [25]: 35 µM
- GI50 [26]: 7.95 µM
- TGI [26]: 25.2 µM
- GI50 [27]: 6.39 µM
- TGI [27]: 25.1 µM
- GI50 [28]: 11.1 µM
- TGI [28]: 34 µM
- GI50 [29]: 5.18 µM
- TGI [29]: 41.1 µM
- GI50 [30]: 1.74 µM
- TGI [30]: 8.98 µM
- GI50 [31]: 2.11 µM
- TGI [31]: 16.1 µM
- GI50 [32]: 4.38 µM
- TGI [32]: 17.6 µM
- GI50 [33]: 0.523 µM
- TGI [33]: 13.8 µM
- GI50 [34]: 0.898 µM
- TGI [34]: 6.88 µM
- GI50 [35]: 3.77 µM
- TGI [35]: 23.7 µM
- GI50 [36]: 10.2 µM
- TGI [36]: 27.1 µM
- GI50 [37]: 15.6 µM
- TGI [37]: 32.6 µM
- GI50 [38]: 11.1 µM
- TGI [38]: 34.8 µM
- GI50 [39]: 5.51 µM
- TGI [39]: 20.9 µM
- GI50 [40]: 2.84 µM
- TGI [40]: 18.2 µM
- GI50 [41]: 3.14 µM
- TGI [41]: 22.6 µM
- GI50 [42]: 2.64 µM
- TGI [42]: 17.1 µM
- GI50 [43]: 2.26 µM
- TGI [43]: 34.9 µM
- GI50 [44]: 1.77 µM
- TGI [44]: 12.5 µM
- GI50 [45]: 1.86 µM
- TGI [45]: 11.9 µM
- GI50 [46]: 3.08 µM
- TGI [46]: 14.9 µM
- GI50 [47]: 11 µM
- TGI [47]: 30.6 µM
- GI50 [48]: 4.49 µM
- TGI [48]: 20.2 µM
- GI50 [49]: 7.74 µM
- TGI [49]: > 100 µM
- GI50 [50]: 2.71 µM
- TGI [50]: 21.2 µM
- GI50 [51]: 9.79 µM
- TGI [51]: 23.1 µM
- GI50 [52]: 10.3 µM
- TGI [52]: 26.1 µM
- GI50 [53]: 2.72 µM
- TGI [53]: 18.6 µM
- GI50 [54]: 12.1 µM
- TGI [54]: 28.5 µM
- GI50 [55]: 3.41 µM
- TGI [55]: 17.2 µM
- GI50 [56]: 4.71 µM
- TGI [56]: 46.3 µM
- GI50 [57]: 2.66 µM
- TGI [57]: 9.59 µM
- GI50 [58]: 3.68 µM
- TGI [58]: 17.4 µM
- GI50 [59]: 1 µM
- TGI [59]: 10 µM
